We go through seven molecules from patent US20240417778A1, “Methods for Nucleic Acid Cleavage” (priority 2021, published 2024).

Entries after “also recorded” stand apart in the source; their conditions may differ.

Series [1] concerns SARS-CoV-2. In kind it is cell-based. Particulars: 6 μM for 24 h, added before or after infection, vs vehicle control.
The subject of series [2] is RNA 69-er with a sequence that corresponds to the coronaviral pseudoknot. It is filed as biochemical. As to conditions: 1 mM, 3 h incubation, 37° C.
In series [3] the test system is frameshifting in SARS-CoV-2. Particulars: Kelly et al., 2020; cited from earlier work.
Series [4] concerns SARS-CoV-2. In words: Virucidal activity on cell free virions. Particulars: 6 μM, 1 h at 37° C., 1000 PFU, plaque assay.
Series [5] in a line: Solubility in aqueous media.
The target of series [6] is perturbed pseudoknot oligonucleotide. In words: Micro-scale thermophoresis (MST), perturbed pseudoknot. In kind it is binding. Particulars: FAM-tagged oligonucleotide 50 nM, HEPES pH 7.4, 25.0° C.
Series [7] relates to RNA extracted from SARS-CoV-2. It is filed as biochemical. As to conditions: 100 μM, 2 h, 37° C.
For series [8], the system named is SARS-CoV-2. It is filed as in vivo, K18-hACE2 mice. As to conditions: 10 mg/kg intranasally 1 hour pre- and 3 hours post-infection, day 5, plaque assay, vs vehicle.
For series [9], the system named is oligomer corresponding to the coronaviral pseudoknot. As to conditions: shape of MST binding curve.
For series [10], the system named is SARS-CoV-2. The experiment in a line: Drug assay of SARS-CoV-2 replication on Vero CCL-81 cells (PCR). In kind it is cell-based. As to conditions: Vero CCL-81, MOI 0.05, 24 h, added 1 h before or 1 h after infection.
Series [11] relates to G4 structure found on 5′UTR of NRAS mRNA. The experiment in a line: Fluorescence quenching assay. As to conditions: Cy5-tagged oligonucleotide 50 nM, HEPES pH 7.4, 25.0° C. In kind it is binding. The protocol: To prepare oligonucleotides for binding studies, oligonucleotides were dissolved at an appropriate buffer to a final concentration of 100 nM, then incubated at 95° C. with shaking for 5 min. Samples were allowed to cool at room temperature for at least 1 h before further dilutions/treatments.
Cy5-tagged oligonucleotide corresponding to G4 structure found on 5′UTR of NRAS mRNA (final concentration 50 nM) were dissolved in 20 mM HEPES pH 7.4 buffer supplemented with KCl (100 mM) and MgCl2 (10 mM) and plated on a 96-well plate. Oligonucleotides were treated with various concentrations of PDS family ligands as indicated, ranging from 5 nM to 10 μM, or a water vehicle control, followed by 30 minute incubation at 4° C. Fluorescence corresponding to Cy5 fluorophore was then measured for each oligonucleotide-small molecule/vehicle control combination using a plate reader (BMG CLARIOstar) at 25.0° C. […] Fluorescence was normalised to a vehicle control and binding curves for each molecule were obtained via a sigmoidal fit by setting the Hill Slope coefficient to 1.
PDS and its derivatives were incubated with a Cy5-functionalised oligomer corresponding to a G-quadruplex in NRAS 5′UTR, a well-established G4 model. As fluorescence quenching is proximity-induced, the signal corresponding to Cy5 is quenched upon PDS binding. […]

In series [12] the test system is pseudoknot. As to conditions: relative to MTDB (Park et al., 2011); cited from earlier work.
The subject of series [13] is E. coli ribosome. The experiment in a line: In vitro degradation of E. coli ribozyme (agarose gel). It is filed as biochemical. As to conditions: 15 mM to 0.47 mM, 18 hours, 200 μM ribozyme. The protocol: The degradation activity was measured in an in vitro assay, targeting the E. coli ribosome. […] Evaluation was made by agarose gel analysis.

Take `CCOC(=O)c1ccccc1NC(=O)N1CCCN(Cc2csc(C)n2)CC1` [MTDB]: in series [1], the “number of viral plaques” value was “only showed decreased number of viral plaques when added before infection”. Also, the “degradation of RNA pseudoknot” value in series [2] is given as “no degradation”. In series [3], the frameshifting result is on record as “known to disrupt frameshifting in SARS-CoV-2”. In addition, the virucidal effect result in series [4] was “no virucidal effect was observed; also recorded: no virucidal effect on cell free virions”. For the same molecule, the solubility result in series [5] is listed as “not soluble enough for KD determination using MST; also recorded: limited solubility”. The KD entry in [6] was “No appreciable binding was observed”. The “degradation of native SARS-CoV-2 RNA on agarose gel” value in [7] is listed as “do not”. Moreover, in series [8], the lung viral load result is reported as “No differences in lung viral load”. Further, in series [9], the “concentration with noticeable binding” value is not below 187.5 µM. For the same molecule, the “antiviral effect (viral replication, E gene and pseudoknot region RNA)” value in series [10] is reported as “did not exhibit an antiviral effect; also recorded: did not inhibit viral replication”.

As for `NCCOc1cc(C(=O)Nc2cc(OCCN)c3ccccc3n2)nc(C(=O)Nc2cc(OCCN)c3ccccc3n2)c1` [PDS, Pyridostatin], in series [11], the half-maximal effective concentration (EC50) amounted to 51 nM.

Turning to `CCOC(=O)c1ccccc1NC(=O)N1CCCN(Cc2ccsc2)CC1` [TDB], the “binding affinity towards the pseudoknot” value in series [12] is given as “lower binding affinity towards the pseudoknot”.

Take `O=C(N[C@H](CO)[C@H](O)c1ccc([N+](=O)[O-])cc1)C(Cl)Cl` [chloramphenicol, Chloramphenicol]: the ribosome degradation result in series [13] was “no degradation”.

In the case of “chloramphenicol-2PEG-imidazole degrader [18b]”, the ribosome degradation result is given as “ribosome degradation could be observed at a concentration of 15 mM” in series [13] and “degradation visible at 15 mM concentration” in series [13] (listed as diethylene glycol linker).

Regarding “chloramphenicol-6PEG-imidazole degrader [18a]”, the ribosome degradation result in series [13] is recorded as “no degradation visible”.

With “chloramphenicol-ethyl-imidazole degrader [18c]”, the ribosome degradation entry in series [13] is on record as “no degradation visible”.
